Results published in patent publication US20230151003A1, “COMPOUNDS AND METHODS OF USE” (Exelixis, Inc., priority 2020, published 2023).
pIC50: −log10 of the molar value.

How the values were obtained:
Met = Met (Homo sapiens, UniProt P08581); experiment: Met autophosphorylation ELISA in PC-3 cells; assay type: cell-based; set-up: endogenous in cells; host or cells: PC-3 prostate cancer cells (ATCC #CRL-1435); conditions: Table 3 Cellular Activities, HGF-stimulated, phospho-Met ELISA, read-out: c-Met IC50
Chain of Met (P08581 25-1390): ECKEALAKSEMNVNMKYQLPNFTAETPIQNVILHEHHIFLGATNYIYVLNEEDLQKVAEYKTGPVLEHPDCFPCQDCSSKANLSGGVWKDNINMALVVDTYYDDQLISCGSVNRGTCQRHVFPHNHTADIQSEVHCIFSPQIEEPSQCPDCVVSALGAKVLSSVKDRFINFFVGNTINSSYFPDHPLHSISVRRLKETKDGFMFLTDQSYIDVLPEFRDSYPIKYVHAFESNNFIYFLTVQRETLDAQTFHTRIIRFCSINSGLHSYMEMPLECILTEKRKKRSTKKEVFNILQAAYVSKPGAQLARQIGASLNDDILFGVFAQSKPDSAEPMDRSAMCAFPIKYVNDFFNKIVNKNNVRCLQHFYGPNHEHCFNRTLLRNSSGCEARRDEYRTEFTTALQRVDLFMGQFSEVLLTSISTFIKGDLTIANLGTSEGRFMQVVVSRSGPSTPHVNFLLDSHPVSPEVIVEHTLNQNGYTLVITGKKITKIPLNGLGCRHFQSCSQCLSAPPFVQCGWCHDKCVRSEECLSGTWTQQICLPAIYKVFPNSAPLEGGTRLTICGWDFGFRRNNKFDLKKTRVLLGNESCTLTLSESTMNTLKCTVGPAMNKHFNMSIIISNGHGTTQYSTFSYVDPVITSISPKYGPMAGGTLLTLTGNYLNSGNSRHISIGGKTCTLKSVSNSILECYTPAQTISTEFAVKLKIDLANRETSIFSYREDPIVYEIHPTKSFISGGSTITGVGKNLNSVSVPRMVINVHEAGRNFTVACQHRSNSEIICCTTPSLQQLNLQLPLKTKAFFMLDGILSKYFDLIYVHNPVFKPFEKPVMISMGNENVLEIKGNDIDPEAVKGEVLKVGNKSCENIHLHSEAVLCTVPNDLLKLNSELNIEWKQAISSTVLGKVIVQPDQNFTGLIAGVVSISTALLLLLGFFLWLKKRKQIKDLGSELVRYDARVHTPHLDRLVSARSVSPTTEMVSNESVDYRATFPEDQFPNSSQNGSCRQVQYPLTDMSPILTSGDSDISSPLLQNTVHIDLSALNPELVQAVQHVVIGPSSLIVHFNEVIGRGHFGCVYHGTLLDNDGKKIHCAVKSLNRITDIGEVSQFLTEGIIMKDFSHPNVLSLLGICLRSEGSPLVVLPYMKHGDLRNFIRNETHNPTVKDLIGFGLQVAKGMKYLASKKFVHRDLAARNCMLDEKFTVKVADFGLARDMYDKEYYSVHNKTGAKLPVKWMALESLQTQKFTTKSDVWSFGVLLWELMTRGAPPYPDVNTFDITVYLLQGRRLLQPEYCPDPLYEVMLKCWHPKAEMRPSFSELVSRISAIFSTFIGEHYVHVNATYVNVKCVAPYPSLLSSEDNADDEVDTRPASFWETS
How it was run: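 Serum-starved (3 h) PC-3 cells pre-incubated 1 h with compound (8-point dose curve, 0.3% DMSO), then stimulated with 100 ng/mL recombinant human HGF for 10 min. Lysate phospho-Met (panTyr) measured by sandwich ELISA; IC50 from 4-parameter logistic fit, normalised to DMSO (100%) and reference-inhibitor (0%) controls.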

AXL = molecular target: T1, AXL (Homo sapiens, UniProt P30530); experiment: AXL autophosphorylation ELISA in A-172 cells; assay type: cell-based; conditions: Table 3 Cellular Activities, Gas6-stimulated, phospho-AXL ELISA
T1 construct: endogenous in cells; host or cells: A-172 glioblastoma cells (ATCC #CRL-1620)
T1 sequence (P30530 26-894): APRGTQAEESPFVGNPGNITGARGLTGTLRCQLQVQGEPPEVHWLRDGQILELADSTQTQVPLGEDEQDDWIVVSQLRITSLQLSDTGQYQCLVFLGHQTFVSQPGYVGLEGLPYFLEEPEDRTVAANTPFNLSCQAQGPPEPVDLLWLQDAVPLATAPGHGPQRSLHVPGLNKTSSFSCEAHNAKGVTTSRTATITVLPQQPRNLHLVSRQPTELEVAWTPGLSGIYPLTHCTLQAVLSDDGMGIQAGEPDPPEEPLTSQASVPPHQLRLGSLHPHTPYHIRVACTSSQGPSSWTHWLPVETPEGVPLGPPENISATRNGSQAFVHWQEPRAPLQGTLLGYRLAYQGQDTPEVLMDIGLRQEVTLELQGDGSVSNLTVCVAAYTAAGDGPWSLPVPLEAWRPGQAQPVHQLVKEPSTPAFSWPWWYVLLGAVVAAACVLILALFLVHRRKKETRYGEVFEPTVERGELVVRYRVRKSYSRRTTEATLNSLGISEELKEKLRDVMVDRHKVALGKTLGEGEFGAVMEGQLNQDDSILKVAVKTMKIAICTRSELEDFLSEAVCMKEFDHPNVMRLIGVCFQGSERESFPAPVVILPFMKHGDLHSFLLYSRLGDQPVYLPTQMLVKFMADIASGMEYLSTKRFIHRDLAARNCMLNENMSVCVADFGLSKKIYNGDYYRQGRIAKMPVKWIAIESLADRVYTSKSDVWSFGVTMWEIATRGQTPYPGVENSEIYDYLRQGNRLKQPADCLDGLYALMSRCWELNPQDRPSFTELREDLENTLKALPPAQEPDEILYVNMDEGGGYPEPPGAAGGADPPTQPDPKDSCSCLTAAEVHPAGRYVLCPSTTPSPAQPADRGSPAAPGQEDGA
How it was run: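 A-172 glioblastoma cells serum-starved 24 h, treated 1 h with compounds (8-point dose curve, 0.3% DMSO), then stimulated with 1 μg/mL Gas6 for 15 min. Lysate phospho-AXL quantified by ELISA against a standard; IC50 from 4-parameter logistic fit, normalised to DMSO and reference-inhibitor controls.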

Row | pIC50 (Met) | pIC50 (AXL) | Structure (SMILES)
1 | ≥ 7.00 | ≥ 7.00 | COc1nc2c(Oc3ccc(NC(=O)c4c(C)n(C)c(C)c(-c5ccco5)c4=O)cc3F)ccnc2cc1OCCC1CCC1 [Compound 337, N-[4-[[7-(2-Cyclobutylethoxy)-6-methoxy-1,5-naphthyridin-4-yl]oxy]-3-fluorophenyl]-5-(furan-2-yl)-1,2,6-trimethyl-4-oxopyridine-3-carboxamide]
2 | ≥ 7.00 | ≥ 7.00 | COc1cc2nccc(Oc3ccc(NC(=O)c4c(C)nc(C)c(-c5cc(C)cs5)c4O)cc3F)c2nc1OC [Compound 137, N-[4-[(6,7-Dimethoxy-1,5-naphthyridin-4-yl)oxy]-3-fluorophenyl]-4-hydroxy-2,6-dimethyl-5-(4-methylthiophen-2-yl)pyridine-3-carboxamide]
3 | ≥ 7.00 | ≥ 7.00 | COc1cc2nccc(Oc3ccc(NC(=O)c4c(C)n(C)c(C)c(-c5cccs5)c4=O)cc3)c2nc1OC [Compound 167, N-[4-[(6,7-Dimethoxy-1,5-naphthyridin-4-yl)oxy]phenyl]-1,2,6-trimethyl-4-oxo-5-thiophen-2-ylpyridine-3-carboxamide]
4 | ≥ 7.00 | ≥ 7.00 | COc1cc2nccc(Oc3ccc(NC(=O)c4c(C)nc(C)c(-c5ccnn5C)c4O)cc3F)c2nc1OC [Compound 108, N-[4-[(6,7-Dimethoxy-1,5-naphthyridin-4-yl)oxy]-3-fluoro-phenyl]-4-hydroxy-2,6-dimethyl-5-(2-methylpyrazol-3-yl) pyridine-3-carboxamide]
5 | ≥ 7.00 | ≥ 7.00 | COc1cc2nccc(Oc3ccc(NC(=O)c4cnc(C)c(-c5ccc(C)s5)c4O)cc3F)c2nc1OC [Compound 94, N-[4-[(6,7-Dimethoxy-1,5-naphthyridin-4-yl)oxy]-3-fluoro-phenyl]-4-hydroxy-6-methyl-5-(5-methyl-2-thienyl) pyridine-3-carboxamide]
6 | ≥ 7.00 | ≥ 7.00 | COc1cnc2c(Oc3ccc(NC(=O)c4cnc(C)c(-c5ccco5)c4O)cc3)ccnc2c1 [Compound 129, 5-(Furan-2-yl)-4-hydroxy-N-[4-[(7-methoxy-1,5-naphthyridin-4-yl)oxy]phenyl]-6-methylpyridine-3-carboxamide]
7 | ≥ 7.00 | ≥ 7.00 | COc1cnc2c(Oc3ccc(NC(=O)c4cnc(C)c(-c5ccoc5)c4O)cc3F)ccnc2c1 [Compound 99, N-[3-Fluoro-4-[(7-methoxy-1,5-naphthyridin-4-yl)oxy]phenyl]-5-(3-furyl)-4-hydroxy-6-methyl-pyridine-3-carboxamide]
8 | ≥ 7.00 | ≥ 7.00 | COc1cnc2c(Oc3ccc(NC(=O)c4cnc(C)c(-c5ccc(C)s5)c4O)cc3F)ccnc2c1 [Compound 101, N-[3-Fluoro-4-[(7-methoxy-1,5-naphthyridin-4-yl)oxy]phenyl]-4-hydroxy-6-methyl-5-(5-methyl-2-thienyl) pyridine-3-carboxamide]
9 | 6.52 to 7.00 | ≥ 7.00 | COc1cc2nccc(Oc3ccc(NC(=O)c4cnc(C)c(-c5cc(C(F)(F)F)nn5C)c4O)cc3F)c2nc1OC [Compound 105]
10 | ≥ 7.00 | ≥ 7.00 | COc1cnc2c(Oc3ccc(NC(=O)c4c(C)n(C)c(C)c(-c5cccs5)c4=O)cc3F)ccnc2c1 [Compound 166, N-[3-Fluoro-4-[(7-methoxy-1,5-naphthyridin-4-yl)oxy]phenyl]-1,2,6-trimethyl-4-oxo-5-thiophen-2-ylpyridine-3-carboxamide]
11 | ≥ 7.00 | ≥ 7.00 | COc1cc2nccc(Oc3ccc(NC(=O)c4cnc(C)c(-c5sccc5C)c4O)cc3F)c2nc1OC [Compound 103, N-[4-[(6,7-Dimethoxy-1,5-naphthyridin-4-yl)oxy]-3-fluoro-phenyl]-4-hydroxy-6-methyl-5-(3-methyl-2-thienyl) pyridine-3-carboxamide]
12 | ≥ 7.00 | ≥ 7.00 | COc1cc2nccc(Oc3ccc(NC(=O)c4cn(CCF)c(C)c(-c5ccco5)c4=O)cc3F)c2nc1OC [Compound 333, N-[4-[(6,7-Dimethoxy-1,5-naphthyridin-4-yl)oxy]-3-fluorophenyl]-1-(2-fluoroethyl)-5-(furan-2-yl)-6-methyl-4-oxopyridine-3-carboxamide]

Second part, the compound before the results:

Row | Structure (SMILES) | pIC50 (Met) | pIC50 (AXL)
13 | COc1cc2nccc(Oc3ccc(NC(=O)c4c(C)nc(C)c(-c5ccc(C)o5)c4O)cc3F)c2nc1OC [Compound 110, N-[4-[(6,7-Dimethoxy-1,5-naphthyridin-4-yl)oxy]-3-fluoro-phenyl]-4-hydroxy-2,6-dimethyl-5-(5-methyl-2-furyl)pyridine-3-carboxamide] | ≥ 7.00 | ≥ 7.00
14 | COc1cc2nccc(Oc3ccc(NC(=O)c4c(C)nc(C)c(-c5cc(C)nn5C)c4O)cc3F)c2nc1OC [Compound 109, N-[4-[(6,7-Dimethoxy-1,5-naphthyridin-4-yl)oxy]-3-fluoro-phenyl]-5-(2,5-dimethylpyrazol-3-yl)-4-hydroxy-2,6-dimethyl-pyridine-3-carboxamide] | ≥ 7.00 | ≥ 7.00
15 | COCc1nc(C)c(-c2ccccn2)c(O)c1C(=O)Nc1ccc(Oc2ccnc3cc(OC)c(OC)nc23)c(F)c1 [Compound 195, N-[4-[(6,7-Dimethoxy-1,5-naphthyridin-4-yl)oxy]-3-fluorophenyl]-4-hydroxy-2-(methoxymethyl)-6-methyl-5-pyridin-2-ylpyridine-3-carboxamide] | ≥ 7.00 | ≥ 7.00
16 | COc1cc2nccc(Oc3ccc(NC(=O)c4c(C)nc(C)c(-c5ccc(C(C)C)o5)c4O)cc3F)c2nc1OC [Compound 148, N-[4-[(6,7-Dimethoxy-1,5-naphthyridin-4-yl)oxy]-3-fluorophenyl]-4-hydroxy-2,6-dimethyl-5-(5-propan-2-ylfuran-2-yl)pyridine-3-carboxamide] | ≥ 7.00 | ≥ 7.00
17 | COc1cc2nccc(Oc3ccc(NC(=O)c4c(C)ncc(-c5ccsc5)c4O)cc3F)c2nc1OC [Compound 127, N-[4-[(6,7-Dimethoxy-1,5-naphthyridin-4-yl)oxy]-3-fluorophenyl]-4-hydroxy-2-methyl-5-thiophen-3-ylpyridine-3-carboxamide] | ≥ 7.00 | ≥ 7.00
18 | COc1cc2nccc(Oc3ccc(NC(=O)c4c(C)n(C)c(C)c(-c5cccs5)c4=O)cc3F)c2nc1OC [Compound 168, N-[4-[(6,7-Dimethoxy-1,5-naphthyridin-4-yl)oxy]-3-fluorophenyl]-1,2,6-trimethyl-4-oxo-5-thiophen-2-ylpyridine-3-carboxamide] | ≥ 7.00 | ≥ 7.00
19 | COc1cc2nccc(Oc3ccc(NC(=O)c4c(C)nc(C)c(-c5ccc(C6CC6)o5)c4O)cc3F)c2nc1OC [Compound 155B, 5-(5-Cyclopropylfuran-2-yl)-N-[4-[(6,7-dimethoxy-1,5-naphthyridin-4-yl)oxy]-3-fluorophenyl]-4-hydroxy-2,6-dimethylpyridine-3-carboxamide] | ≥ 7.00 | ≥ 7.00
20 | COc1cc2nccc(Oc3ccc(NC(=O)c4cnc(C)c(-c5cnoc5)c4O)cc3F)c2nc1OC [Compound 140, N-[4-[(6,7-Dimethoxy-1,5-naphthyridin-4-yl)oxy]-3-fluorophenyl]-4-hydroxy-6-methyl-5-(1,2-oxazol-4-yl)pyridine-3-carboxamide] | ≥ 7.00 | ≥ 7.00
21 | COc1cc2nccc(Oc3ccc(NC(=O)c4cnc(C)c(-c5ccsc5)c4O)cc3F)c2nc1OC [Compound 93, N-[4-[(6,7-Dimethoxy-1,5-naphthyridin-4-yl)oxy]-3-fluoro-phenyl]-4-hydroxy-6-methyl-5-(3-thienyl)pyridine-3-carboxamide] | ≥ 7.00 | ≥ 7.00
